Measurements reported in ChEMBL document CHEMBL3525906, “A comprehensive assessment of repaglinide metabolic pathways: impact of choice of in vitro system and relative enzyme contribution to in vitro clearance” (Drug Metab Dispos, 2012).

Experiments:
[1] = Drug metabolism in human hepatic S9 fraction assessed as glucuronide formation measured per mg of protein at 0.5 to 150 uM by LC-MS/MS method; format: ADME, Liver; conditions: s9, 150 µM
Cytochrome P450 3A4 [2] = target: T1, Cytochrome P450 3A4 (Homo sapiens, UniProt P08684); assay: Fraction metabolism via CYP3A4 in human liver microsomes; format: ADME
T1 sequence (P08684 whole entry): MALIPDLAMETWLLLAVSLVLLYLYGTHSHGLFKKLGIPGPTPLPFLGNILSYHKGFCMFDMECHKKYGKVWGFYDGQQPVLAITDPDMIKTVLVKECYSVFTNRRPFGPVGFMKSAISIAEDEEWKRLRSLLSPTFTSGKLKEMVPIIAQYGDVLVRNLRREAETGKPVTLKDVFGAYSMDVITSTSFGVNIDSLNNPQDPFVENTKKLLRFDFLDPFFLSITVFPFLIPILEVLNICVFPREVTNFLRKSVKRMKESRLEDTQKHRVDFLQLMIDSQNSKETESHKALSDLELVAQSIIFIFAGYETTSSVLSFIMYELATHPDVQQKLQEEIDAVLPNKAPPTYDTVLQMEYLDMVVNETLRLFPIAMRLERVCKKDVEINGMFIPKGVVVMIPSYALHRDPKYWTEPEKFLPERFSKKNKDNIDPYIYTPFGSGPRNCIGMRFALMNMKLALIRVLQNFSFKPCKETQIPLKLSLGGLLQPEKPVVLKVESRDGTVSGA

Cytochrome P450 2C8 [3] = target: T2, Cytochrome P450 2C8 (Homo sapiens, UniProt P10632); assay: Fraction metabolism via CYP2C8 in human liver microsomes; format: ADME
T2 sequence (P10632 whole entry): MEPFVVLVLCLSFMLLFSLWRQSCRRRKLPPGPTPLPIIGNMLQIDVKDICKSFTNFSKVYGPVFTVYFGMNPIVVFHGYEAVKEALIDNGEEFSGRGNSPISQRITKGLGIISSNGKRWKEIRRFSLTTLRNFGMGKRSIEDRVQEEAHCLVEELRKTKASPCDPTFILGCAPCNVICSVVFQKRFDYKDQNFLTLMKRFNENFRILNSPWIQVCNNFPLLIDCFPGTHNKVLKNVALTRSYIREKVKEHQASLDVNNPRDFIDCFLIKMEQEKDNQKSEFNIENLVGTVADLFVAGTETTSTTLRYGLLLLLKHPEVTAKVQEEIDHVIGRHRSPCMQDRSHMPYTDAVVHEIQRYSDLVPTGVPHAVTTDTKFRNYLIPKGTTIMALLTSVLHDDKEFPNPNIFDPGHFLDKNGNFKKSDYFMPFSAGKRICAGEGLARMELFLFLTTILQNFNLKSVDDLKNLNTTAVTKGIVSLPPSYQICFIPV

[4] = Drug metabolism in human hepatic S9 fraction assessed as 2-despiperidyl-2-amino repaglinide formation by LC-MS/MS method; format: ADME, Liver
Cytochrome P450 3A5 [5] = target: T3, Cytochrome P450 3A5 (Homo sapiens, UniProt P20815); assay: Unbound intrinsic clearance in human recombinant CYP3A5 expressed in insect cells assessed as enzyme-mediated 3'-hydroxy repaglinide formation per nanomole of protein at 0.5 to 150 uM by LC-MS/MS method; format: ADME
T3 sequence (P20815 whole entry): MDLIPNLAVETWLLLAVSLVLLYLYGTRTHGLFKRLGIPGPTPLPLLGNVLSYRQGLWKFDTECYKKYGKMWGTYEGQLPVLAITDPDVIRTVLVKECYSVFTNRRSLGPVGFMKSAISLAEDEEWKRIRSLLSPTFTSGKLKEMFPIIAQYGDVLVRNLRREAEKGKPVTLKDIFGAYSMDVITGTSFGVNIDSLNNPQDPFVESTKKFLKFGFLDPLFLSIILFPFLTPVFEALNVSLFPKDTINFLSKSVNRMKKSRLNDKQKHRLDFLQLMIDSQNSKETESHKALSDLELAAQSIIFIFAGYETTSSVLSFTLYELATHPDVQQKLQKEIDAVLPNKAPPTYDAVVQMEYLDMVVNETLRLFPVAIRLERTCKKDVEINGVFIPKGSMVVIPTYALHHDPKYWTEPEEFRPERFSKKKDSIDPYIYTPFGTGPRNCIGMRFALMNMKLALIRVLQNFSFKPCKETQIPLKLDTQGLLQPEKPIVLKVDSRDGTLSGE

Homo sapiens [6] = species on record: Homo sapiens; assay: Drug metabolism in human patient assessed as fold change in metabolite M2/M1 AUC ratio at 0.25 mg co-treated with montelukast relative to montelukast non-treated patient; format: ADME, organism-based; conditions: in vivo
[7] = Drug metabolism in human hepatic S9 fraction assessed as 2-despiperidyl-2-(5-carboxypentylamine) repaglinide formation by LC-MS/MS method; format: ADME, Liver
Homo sapiens [8] = species on record: Homo sapiens; assay: Drug metabolism in human patient assessed as fold change in metabolite M2/M1 AUC ratio at 0.25 mg co-treated with atorvastatin relative to atorvastatin non-treated patient; format: ADME, organism-based; conditions: in vivo
[9] = Unbound intrinsic clearance in human hepatic S9 fraction assessed as 2-despiperidyl-2-amino repaglinide formation measured per mg of protein at 0.5 to 150 uM by LC-MS/MS method; format: ADME, tissue-based, Liver; conditions: s9, 150 µM
Homo sapiens [10] = species on record: Homo sapiens; assay: Drug metabolism in human patient assessed as fold change in metabolite M2/M4 AUC ratio at 0.25 mg co-treated with atorvastatin relative to atorvastatin non-treated patient; format: ADME, organism-based; conditions: in vivo
[11] = Drug metabolism in human hepatocytes assessed as glucuronide formation by LC-MS/MS method; format: ADME, cell-based, Hepatocyte
[12] = Drug metabolism in human hepatocytes assessed as 3'-hydroxy repaglinide formation by LC-MS/MS method; format: ADME, cell-based, Hepatocyte
[13] = Unbound intrinsic clearance in human hepatic S9 fraction assessed as 2-despiperidyl-2-(5-carboxypentylamine) repaglinide formation measured per mg of protein at 0.5 to 150 uM by LC-MS/MS method; format: ADME, tissue-based, Liver; conditions: s9, 150 µM
Homo sapiens [14] = species on record: Homo sapiens; assay: Ratio of AUC in human patient at 0.25 mg to AUC in human patient at 0.25 mg co-treated with trimethoprim; format: ADME, organism-based; conditions: in vivo
Hepatocyte [15] = assay: Unbound intrinsic clearance in human hepatocytes assessed as glucuronide formation measured per 10^6 cells at 0.5 to 150 uM by LC-MS/MS method; format: ADME, cell-based
Homo sapiens [16] = species on record: Homo sapiens; assay: Drug metabolism in human patient assessed as fold change in metabolite M2/M1 AUC ratio at 0.25 mg co-treated with telithromycin and montelukast relative to telithromycin and montelukast non-treated patient; format: ADME, organism-based; conditions: in vivo
Cytochrome P450 3A4 [17] = target: T1, Cytochrome P450 3A4; assay: Unbound intrinsic clearance in human recombinant CYP3A4 expressed in insect cells assessed as enzyme-mediated 2-despiperidyl-2-amino repaglinide formation per nanomole of protein at 0.5 to 150 uM by LC-MS/MS method; format: ADME
[18] = Half life in type 2 diabetes patient; format: ADME, organism-based; conditions: human, in vivo
Homo sapiens [19] = species on record: Homo sapiens; assay: Ratio of AUC in human patient at 0.25 mg to AUC in human patient at 0.25 mg co-treated with gemfibrozil; format: ADME, organism-based; conditions: in vivo
[20] = Drug metabolism in human hepatic S9 fraction assessed as glucuronide formation by LC-MS/MS method; format: ADME, Liver
Liver microsome [21] = assay: Drug metabolism in human liver microsomes assessed as glucuronide formation by LC-MS/MS method; format: ADME
Homo sapiens [22] = species on record: Homo sapiens; assay: Ratio of AUC in human patient at 0.25 mg to AUC in human patient at 0.25 mg co-treated with cyclosporine; format: ADME, organism-based; conditions: in vivo
Homo sapiens [23] = species on record: Homo sapiens; assay: Ratio of AUC in human patient at 0.25 mg to AUC in human patient at 0.25 mg co-treated with atorvastatin; format: ADME, organism-based; conditions: in vivo
Hepatocyte [24] = assay: Unbound intrinsic clearance in human hepatocytes assessed as 3'-hydroxy repaglinide formation measured per 10^6 cells at 0.5 to 150 uM by LC-MS/MS method; format: ADME, cell-based
Liver microsome [25] = assay: Unbound intrinsic clearance in human liver microsomes assessed as glucuronide formation measured per mg of protein at 0.5 to 150 uM by LC-MS/MS method; format: ADME
[26] = Unbound intrinsic clearance in human hepatic S9 fraction assessed as 3'-hydroxy repaglinide formation measured per mg of protein at 0.5 to 150 uM by LC-MS/MS method; format: ADME, tissue-based, Liver; conditions: s9, 150 µM
Homo sapiens [27] = species on record: Homo sapiens; assay: Ratio of AUC in human patient at 0.25 mg to AUC in human patient at 0.25 mg co-treated with clarithromycin; format: ADME, organism-based; conditions: in vivo
Homo sapiens [28] = species on record: Homo sapiens; assay: Ratio of AUC in human patient at 0.25 mg to AUC in human patient at 0.25 mg co-treated with gemfibrozil on various time intervals; format: ADME, organism-based; conditions: in vivo
Cytochrome P450 3A5 [29] = target: T3, Cytochrome P450 3A5; assay: Unbound intrinsic clearance in human recombinant CYP3A5 expressed in insect cells assessed as enzyme-mediated 2-despiperidyl-2-amino repaglinide formation per nanomole of protein at 0.5 to 150 uM by LC-MS/MS method; format: ADME
Cytochrome P450 2C8 [30] = target: T2, Cytochrome P450 2C8; assay: Unbound intrinsic clearance in human recombinant CYP2C8 expressed in insect cells assessed as enzyme-mediated 3'-hydroxy repaglinide formation per nanomole of protein at 0.5 to 150 uM by LC-MS/MS method; format: ADME
[31] = Drug metabolism in human hepatocytes assessed as 2-despiperidyl-2-amino repaglinide formation by LC-MS/MS method; format: ADME, cell-based, Hepatocyte
Hepatocyte [32] = assay: Unbound intrinsic clearance in human hepatocytes assessed as 2-despiperidyl-2-amino repaglinide formation measured per 10^6 cells at 0.5 to 150 uM by LC-MS/MS method; format: ADME, cell-based
Liver microsome [33] = assay: Drug metabolism in human liver microsomes assessed as 3'-hydroxy repaglinide formation measured per mg of protein at 0.5 to 150 uM by LC-MS/MS method; format: ADME
Homo sapiens [34] = species on record: Homo sapiens; assay: Ratio of AUC in human patient at 0.25 mg to AUC in human patient at 0.25 mg co-treated with telithromycin; format: ADME, organism-based; conditions: in vivo

- Vmax [1]: 46 pmol/min/mg
- Fm (Cytochrome P450 3A4 [2]): 0.2
- Fm (Cytochrome P450 2C8 [3]): 0.63
- Km [4]: 58 µM
- CL free (Cytochrome P450 3A5 [5]): 0.19 µL/min/nmol
- fold change (FC) (Homo sapiens [6]): 1.1
- Km [7]: 47 µM
- fold change (FC) (Homo sapiens [8]): 1.05
- CL free [9]: 0.76 µL/min/mg
- fold change (FC) (Homo sapiens [10]): 0.87
- Km [11]: 53 µM
- Km [12]: 13 µM
- CL free [13]: 3.7 µL/min/mg
- Ratio (Homo sapiens [14]): 1.6
- CL free (Hepatocyte [15]): 0.13 uL/min/10^6cells
- fold change (FC) (Homo sapiens [16]): 4.3
- CL free (Cytochrome P450 3A4 [17]): 120 µL/min/nmol
- half-life [18]: 1 h
- Ratio (Homo sapiens [19]): 8.1
- Km [20]: 47 µM
- Km (Liver microsome [21]): 37 µM
- Ratio (Homo sapiens [22]): 2.4
- Ratio (Homo sapiens [23]): 1.2
- CL free (Hepatocyte [24]): 2.4 uL/min/10^6cells
- CL free (Liver microsome [25]): 5.6 µL/min/mg
- CL free [26]: 2.7 µL/min/mg
- Ratio (Homo sapiens [27]): 1.4
- Ratio (Homo sapiens [28]): 5
- CL free (Cytochrome P450 3A5 [29]): 1.4 µL/min/nmol
- CL free (Cytochrome P450 2C8 [30]): 70 µL/min/nmol
- Km [31]: 58 µM
- CL free (Hepatocyte [32]): 0.75 uL/min/10^6cells
- Vmax (Liver microsome [33]): 130 pmol/min/mg
- Ratio (Homo sapiens [34]): 1.8
Compound: CCOc1cc(CC(=O)N[C@@H](CC(C)C)c2ccccc2N2CCCCC2)ccc1C(=O)O [REPAGLINIDE]
